Legend:
human hepatoma G2 cells = test: Cytotoxicity assay (XTT colorimetric), Hep G2; assay type: cell-based; details: 48 h of drug exposure
rat glioma C6 cells = test: Cytotoxicity assay (XTT colorimetric), C6 cells; assay type: cell-based; details: 48 h of drug exposure
[1] = tested on: hepatitis B virus transfected hepatoma cell lines, HepG 2.2.15 cells; test: Cytotoxicity assay, 2.2.15 cells; assay type: cell-based, human; details: 48 h of drug exposure
[2] = tested on: transcriptional activity of hTERT; test: SEAP reporter assay of hTERT expression, PhTERT-SEAP (hTERT-BJ1); assay type: cell-based, human; details: PhTERT-SEAP (hTERT-BJ1)
Experimental: (§1) Secreted alkaine phosphatase was used as the reporter system to monitor the transcriptional activity of hTERT. Here, about […] each were grown in 96-well plates and incubated at 37° C. for 24 h and changed with fresh media. Varying amounts of drugs were added and cells were incubated for another 24 h. Culture media were collected and heated at 65° C. for 10 min to inactivate heat-labile phosphatases. An equal amount of SEAP buffer (2 M diethanolamine, 1 mM MgCl2, and 20 mM […]) was added to the media and p-nitrophenyl phosphate was added to a final concentration of 12 mM. Absorptions at 405 nm were taken, and the rate of absorption increase is determined.
(§2) Culture media were changed every 3 days. […] The stable clones were selected using G418.

[3] = tested on: transcriptional activity of hTERT; test: SEAP reporter assay of hTERT expression, PhTERT-SEAP (H1299); assay type: cell-based, human; details: PhTERT-SEAP(hTERT-H1299)
Experimental: as §1, §2

[4] = tested on: non-small-cell lung cancer cells H1299; test: MTT relative viability, PhTERT-SEAP (H1299) cells; details: PhTERT-SEAP(hTERT-H1299)
Experimental: The tetrazolium reagent (MTT; 3-(4,5-di-methylthiazol)-2,5-diphenyl tetrazolium bromide, USB) was designed to yield a colored formazan upon metabolic reduction by viable cells. Approximately […] cells were plated onto each well of a 96-well plate and incubated in 5% CO2 at 37° C. for 24 h. To assess the in vitro cytotoxicity, each compound was dissolved in DMSO and prepared immediately before the experiments and was diluted into the complete medium before addition to cell cultures. Test compounds were then added to the culture medium for designated various concentrations. After 48 h, an amount of 25 μL of MTT was added to each well, and the samples were incubated at 37° C. for 4 h. A 100 μL solution of lysis buffer containing 20% SDS and 50% N,N-dimethylformamide was added to each well and incubated at 37° C. for another 16 h. The absorbency at 550 nm was measured using an ELISA reader.
Non small lung cancer cells H1299 (telomerase positive) were grown in RPMI 1640 media supplemented with 10% fetal bovine serum, 100 units/mL penicillin and 100 mg/mL streptomycin in a humidified atmosphere with 5% CO2 at 37° C. The hTERT immortalized hTERT-BJ1 (BD Biosciences Clontech)^39 were grown in DMEM media supplemented with 10% fetal calf serum, 100 units/mL penicillin and 100 mg/mL streptomycin, 1 mM sodium pyruvate, and 4 mM I-arginine in a humidified atmosphere with 5% CO2 at 37° C. Culture media were changed every 3 days. […] The stable clones derived from H1299 or hTERT-BJ1 were cultured using conditions that are similar to their parental cells.

hTERT-BJ1 cells = test: MTT relative viability, PhTERT-SEAP (hTERT-BJ1) cells; details: PhTERT-SEAP (hTERT-BJ1)

O=C(Nc1ccc(NC(=O)c2ccccc2)c2c1C(=O)c1ccccc1C2=O)c1ccccc1 [VI4, 1,4-Bisbenzoylamido-9,10-anthracenedione]
IC50 (human hepatoma G2 cells): > 20 µM
IC50 (rat glioma C6 cells): > 20 µM
IC50 [1]: > 20 µM
Relative SEAP activity (%) ([2]; 2.2 μM): (−4) ± 25.7^ %
SEAP/vibility ([2]; 2.2 μM): −0.04
Relative SEAP activity (%) ([2]; 22 μM): (−10) ± 26.8 ^ %
SEAP/vibility ([2]; 22 μM): −0.14
Relative SEAP activity (%) ([2]; 224 μM): (−41) ± 26.8 ^ %
SEAP/vibility ([2]; 224 μM): −1.10
Relative SEAP activity (%) ([3]; 2.2 μM): 81 ± 3.3%
SEAP/vibility ([3]; 2.2 μM): 0.74
Relative SEAP activity (%) ([3]; 22 μM): 84 ± 2.6%
SEAP/vibility ([3]; 22 μM): 0.96
Relative SEAP activity (%) ([3]; 224 μM): 80 ± 2.7%
SEAP/vibility ([3]; 224 μM): 2.99
Relative MTT viability (%) ([4]; 2.2 μM): 109 ± 6.0%
Relative MTT viability (%) ([4]; 22 μM): 88 ± 6.2%
Relative MTT viability (%) ([4]; 224 μM): 27 ± 1.8%
Relative MTT viability (%) (hTERT-BJ1 cells; 2.2 μM): 95 ± 4.9%
Relative MTT viability (%) (hTERT-BJ1 cells; 22 μM): 69 ± 3.2%
Relative MTT viability (%) (hTERT-BJ1 cells; 224 μM): 38 ± 2.6%

O=C(Nc1ccc(NC(=O)c2cccc(Cl)c2)c2c1C(=O)c1ccccc1C2=O)c1cccc(Cl)c1 [VI5, 1,4-Bis(3-chlorobenzoylamido)-9,10-anthracenedione]
IC50 (human hepatoma G2 cells): > 20 µM
IC50 (rat glioma C6 cells): > 20 µM
IC50 [1]: > 20 µM
Relative SEAP activity (%) ([2]; 1.9 μM): 98 ± 10.1%
SEAP/vibility ([2]; 1.9 μM): 0.99
Relative SEAP activity (%) ([2]; 19 μM): 105 ± 8.8%
SEAP/vibility ([2]; 19 μM): 1.17
Relative SEAP activity (%) ([2]; 194 μM): 89 ± 10.1%
SEAP/vibility ([2]; 194 μM): 1.48
Relative SEAP activity (%) ([3]; 1.9 μM): 110 ± 4.9%
SEAP/vibility ([3]; 1.9 μM): 1.17
Relative SEAP activity (%) ([3]; 19 μM): 112 ± 6.1%
SEAP/vibility ([3]; 19 μM): 1.10
Relative SEAP activity (%) ([3]; 194 μM): 91 ± 3.0%
SEAP/vibility ([3]; 194 μM): 1.55
Relative MTT viability (%) ([4]; 1.9 μM): 95 ± 11.3%
Relative MTT viability (%) ([4]; 19 μM): 102 ± 8.5%
Relative MTT viability (%) ([4]; 194 μM): 59 ± 4.3%
Relative MTT viability (%) (hTERT-BJ1 cells; 1.9 μM): 99 ± 9.8%
Relative MTT viability (%) (hTERT-BJ1 cells; 19 μM): 90 ± 1.9%
Relative MTT viability (%) (hTERT-BJ1 cells; 194 μM): 60 ± 2.0%

Cc1cccc(C(=O)Nc2ccc(NC(=O)c3cccc(C)c3)c3c2C(=O)c2ccccc2C3=O)c1 [VI6, 1,4-Bis(3-methylbenzoylamido)-9,10-anthracenedione]
IC50 (human hepatoma G2 cells): > 20 µM
IC50 (rat glioma C6 cells): > 20 µM
IC50 [1]: > 20 µM
Relative SEAP activity (%) ([2]; 2.1 μM): 97 ± 17.1%
SEAP/vibility ([2]; 2.1 μM): 0.88
Relative SEAP activity (%) ([2]; 21 μM): 78 ± 7.1%
SEAP/vibility ([2]; 21 μM): 0.71
Relative SEAP activity (%) ([2]; 210 μM): 70 ± 5.8%
SEAP/vibility ([2]; 210 μM): 0.69
Relative SEAP activity (%) ([3]; 2.1 μM): 107 ± 4.6%
SEAP/vibility ([3]; 2.1 μM): 1.06
Relative SEAP activity (%) ([3]; 21 μM): 104 ± 4.0%
SEAP/vibility ([3]; 21 μM): 1.08
Relative SEAP activity (%) ([3]; 210 μM): 99 ± 9.1%
SEAP/vibility ([3]; 210 μM): 1.20
Relative MTT viability (%) ([4]; 2.1 μM): 101 ± 5.6%
Relative MTT viability (%) ([4]; 21 μM): 97 ± 6.2%
Relative MTT viability (%) ([4]; 210 μM): 83 ± 7.8%
Relative MTT viability (%) (hTERT-BJ1 cells; 2.1 μM): 110 ± 2.6%
Relative MTT viability (%) (hTERT-BJ1 cells; 21 μM): 109 ± 4.6%
Relative MTT viability (%) (hTERT-BJ1 cells; 210 μM): 101 ± 6.0%

O=C(Nc1ccc(NC(=O)c2ccc(Cl)cc2Cl)c2c1C(=O)c1ccccc1C2=O)c1ccc(Cl)cc1Cl [VI8, 1,4-Bis(2,4-dichlorobenzoylamido)-9,10-anthracenedione]
IC50 (human hepatoma G2 cells): > 20 µM
IC50 (rat glioma C6 cells): > 20 µM
IC50 [1]: > 20 µM
Relative SEAP activity (%) ([2]; 1.7 μM): 33 ± 11.2%
SEAP/vibility ([2]; 1.7 μM): 0.32
Relative SEAP activity (%) ([2]; 17 μM): 25 ± 17.2%
SEAP/vibility ([2]; 17 μM): 0.26
Relative SEAP activity (%) ([2]; 171 μM): 39 ± 12.8%
SEAP/vibility ([2]; 171 μM): 0.52
Relative SEAP activity (%) ([3]; 1.7 μM): 85 ± 7.9%
SEAP/vibility ([3]; 1.7 μM): 0.80
Relative SEAP activity (%) ([3]; 17 μM): 84 ± 7.1%
SEAP/vibility ([3]; 17 μM): 0.89
Relative SEAP activity (%) ([3]; 171 μM): 87 ± 2.6%
SEAP/vibility ([3]; 171 μM): 1.06
Relative MTT viability (%) ([4]; 1.7 μM): 106 ± 3.9%
Relative MTT viability (%) ([4]; 17 μM): 95 ± 1.3%
Relative MTT viability (%) ([4]; 171 μM): 83 ± 1.2%
Relative MTT viability (%) (hTERT-BJ1 cells; 1.7 μM): 102 ± 3.4%
Relative MTT viability (%) (hTERT-BJ1 cells; 17 μM): 98 ± 7.2%
Relative MTT viability (%) (hTERT-BJ1 cells; 171 μM): 76 ± 4.8%

O=C(Nc1ccc(NC(=O)c2ccccc2F)c2c1C(=O)c1ccccc1C2=O)c1ccccc1F [VI10, 1,4-Bis(2-fluorobenzoylamido)-9,10-anthracenedione]
IC50 (human hepatoma G2 cells): > 20 µM
IC50 (rat glioma C6 cells): > 20 µM
IC50 [1]: > 20 µM
Relative SEAP activity (%) ([2]; 2.0 μM): 95 ± 8.9%
SEAP/vibility ([2]; 2.0 μM): 0.90
Relative SEAP activity (%) ([2]; 20 μM): 96 ± 9.8%
SEAP/vibility ([2]; 20 μM): 0.96
Relative SEAP activity (%) ([2]; 207 μM): 79 ± 7.4%
SEAP/vibility ([2]; 207 μM): 0.92
Relative SEAP activity (%) ([3]; 2.0 μM): 105 ± 7.8%
SEAP/vibility ([3]; 2.0 μM): 0.91
Relative SEAP activity (%) ([3]; 20 μM): 107 ± 11.9%
SEAP/vibility ([3]; 20 μM): 1.03
Relative SEAP activity (%) ([3]; 207 μM): 103 ± 14.4%
SEAP/vibility ([3]; 207 μM): 1.34
Relative MTT viability (%) ([4]; 2.0 μM): 116 ± 2.4%
Relative MTT viability (%) ([4]; 20 μM): 104 ± 6.1%
Relative MTT viability (%) ([4]; 207 μM): 77 ± 2.6%
Relative MTT viability (%) (hTERT-BJ1 cells; 2.0 μM): 106 ± 6.5%
Relative MTT viability (%) (hTERT-BJ1 cells; 20 μM): 105 ± 8.5%
Relative MTT viability (%) (hTERT-BJ1 cells; 207 μM): 86 ± 7.3%

O=C(Nc1ccc(NC(=O)c2ccccc2[N+](=O)[O-])c2c1C(=O)c1ccccc1C2=O)c1ccccc1[N+](=O)[O-] [VI11, 1,4-Bis(2-nitrobenzoylamido)-9,10-anthracenedione]
IC50 (human hepatoma G2 cells): > 20 µM
IC50 (rat glioma C6 cells): > 20 µM
IC50 [1]: > 20 µM
Relative SEAP activity (%) ([2]; 1.8 μM): 102 ± 33.4%
SEAP/vibility ([2]; 1.8 μM): 0.92
Relative SEAP activity (%) ([2]; 18 μM): 122 ± 19.5%
SEAP/vibility ([2]; 18 μM): 1.14
Relative SEAP activity (%) ([2]; 186 μM): 114 ± 28.1%
SEAP/vibility ([2]; 186 μM): 1.15
Relative SEAP activity (%) ([3]; 1.8 μM): 105 ± 4.3%
SEAP/vibility ([3]; 1.8 μM): 1.00
Relative SEAP activity (%) ([3]; 18 μM): 107 ± 7.9%
SEAP/vibility ([3]; 18 μM): 1.06
Relative SEAP activity (%) ([3]; 186 μM): 94 ± 8.0%
SEAP/vibility ([3]; 186 μM): 1.10
Relative MTT viability (%) ([4]; 1.8 μM): 104 ± 6.3%
Relative MTT viability (%) ([4]; 18 μM): 101 ± 4.1%
Relative MTT viability (%) ([4]; 186 μM): 86 ± 5.3%
Relative MTT viability (%) (hTERT-BJ1 cells; 1.8 μM): 110 ± 4.1%
Relative MTT viability (%) (hTERT-BJ1 cells; 18 μM): 107 ± 6.3%
Relative MTT viability (%) (hTERT-BJ1 cells; 186 μM): 99 ± 3.2%
